Earlier results, collected in patent US11472859B2, “Method and composition for treating neuronal hyper-excitabtiity” (The Regents of the University of California, priority 2016, dated 2022).
“Also recorded” adds a separate entry of the source.

Key:
[1] = system: spasticity; settings: for anti-spasticity effect: systemic or spinal administration, clinical (and experimental animal) studies
[2] = system: brain or spinal parenchymal GABA release; settings: after systemic delivery

Structure (SMILES): NCC(CC(=O)O)c1ccc(Cl)cc1 (stereo not shown) [baclofen]
- side effects ([1]; clinical use, systemic or spinal): major side effects such as general sedation and progressive tolerance development; also recorded: unwanted systemic side effects such as sedation
- anti-spasticity effect [1]: most potent anti-spasticity pharmacological treatment; also recorded: effective in modulating spasticity; also recorded: potent antispasticity effect

Structure (SMILES): Cc1ccsc1C(=CCCN1CCC[C@@H](C(=O)O)C1)c1sccc1C [tiagabine]
- potentiation of brain or spinal parenchymal GABA release [2]: relatively modest potentiation
- anti-spasticity effect [1]: only a weak or no anti-spasticity effect
